From BigSolDB 2.1

O=C1OC(=O)[C@H]2[C@@H]1[C@H]1C=C[C@@H]2C1
solubility (mole fraction)
Conditions	278.15 K	283.15 K	288.15 K	293.15 K	298.15 K	303.15 K	308.15 K	313.15 K	318.15 K	323.15 K
in 1,4-dioxane	–	–	0.177	0.199	0.221	0.249	0.273	0.304	0.334	0.37
in DMF	0.209	0.23	0.246	0.267	0.288	0.309	0.337	0.361	0.389	0.419
in NMP	0.257	0.271	0.289	0.305	0.325	0.345	0.371	0.392	0.421	0.448
in acetone	0.13	0.144	0.162	0.179	0.201	0.223	0.251	0.276	0.308	–
in ethanol	0.00405	0.00536	0.00707	0.00927	0.0117	0.0155	0.02	0.0255	0.0321	0.0404
in ethyl acetate	0.0719	0.0849	0.101	0.115	0.134	0.154	0.176	0.201	0.226	0.254
in isopentyl acetate	0.0426	0.0504	0.0608	0.07	0.0818	0.0952	0.107	0.125	0.145	0.165
in isopropyl acetate	0.0541	0.0637	0.0745	0.0862	0.102	0.117	0.133	0.152	0.172	0.196
in methyl acetate	0.0936	0.11	0.127	0.145	0.166	0.189	0.214	0.24	0.269	0.298
in n-butyl acetate	0.0526	0.0614	0.0725	0.0835	0.0969	0.111	0.128	0.145	0.165	0.189
in n-hexyl acetate	0.0377	0.0447	0.0525	0.0614	0.0717	0.0828	0.0955	0.11	0.125	0.144
in n-pentyl acetate	0.0448	0.0526	0.0615	0.0717	0.0833	0.0964	0.111	0.126	0.144	0.165
in n-propyl acetate	0.0616	0.0722	0.0852	0.0981	0.112	0.13	0.148	0.17	0.191	0.215
in octyl acetate	0.0303	0.036	0.0424	0.0496	0.0576	0.0666	0.0774	0.0875	0.1	0.115
